Laboratory results as given in patent publication US9526721B2, “Tetrahydroprotoberbine compounds and uses thereof in the treatment of neurological, psychiatric and neurodegenerative diseases” (priority 2012, dated 2016).

Assays:
[1] = system: rats; assay: Microdialysis of prefrontal cortex and nucleus accumbens; conditions: for 5-HIAA in NAc / DOPAC in NAc / HVA in NAc / dopamine level in NAc / 5-HIAA in PFC / DOPAC in PFC / HVA in PFC / dopamine level in PFC: microdialysis; for 5-HIAA in NAc / DOPAC in NAc / HVA in NAc / dopamine level in NAc: nucleus accumbens; for 5-HIAA in PFC / DOPAC in PFC / HVA in PFC / dopamine level in PFC: prefrontal cortex;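 for all read-outs here: dialysate collected every 10 min from freely moving rats, analysed by HPLC with electrochemical detection, after four stable baseline samples (under 10% variation) preceding drug dosing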
Method: Rats received subcutaneous injections of an analgesic (ketoprofen 0.05 mL or buprenorphine, 0.1 mL) and sterile saline (0.9% NaCl, ˜3 mL). Once shaved and cleaned, the heads were secured in the stereotaxic frame in flat skull position for bilateral implantation of stainless steel microdialysis guide cannulae (19 gauge×15 mm) in the nucleus accumbens (NAc) (from bregma +1.7 mm anterior and ±1.1 mm medial; from dura −1.0 mm ventral) or medial prefrontal cortex (mPFC) (+3.0 mm anterior, ±0.6 mm medial; −1.0 mm ventral). […] Rats were allowed to rest with heat support until they regained consciousness, and then given a one-week recovery period.
Microdialysis probes were assembled 1-2 days prior to microdialysis experiments. Probes were concentric in design, constructed from Filtral 12 AN69HF semi-permeable hollow fibres (2 mm length, 340 μm OD×4 mm, 65 kDalton molecular weight cut-off; Hospal, Neurnberg, Germany) and silica inlet-outlet lines (75/150 um ID/OD).
The day prior to microdialysis experiments, probes were connected to an Instech dual-channel liquid swivel (Plymouth Meeting, Pa.) and flushed with artificial cerebrospinal fluid (aCSF). […] Following DA recovery tests, probes were implanted via the guide cannulae (dialysis membrane spanned −4.8 to −6.8 mm ventrally for NAc; −1.6 to −3.6 mm for mPFC). Rats remained in the testing chamber overnight (14-16 hr) with aCSF perfusing continuously through the probes at 1 μL/min In the morning, microdialysis samples were collected at 10 min intervals and assayed for DA, DOPAC, homovanillic acid (HVA) and 5-HIAA content. Once baseline levels were determined to be stable for four consecutive samples (less than 10% fluctuation), the drug treatment phase of each experiment was initiated.
Microdialysis samples were analyzed immediately after collection using high pressure liquid chromatography (HPLC) with electrochemical detection. […] The mobile phase [70 mM sodium acetate buffer, 40 mg/L EDTA and 50 mg/L of sodium dodecyl sulfate (adjustable), pH 4.0, 10% methanol] flowed through the system at 0.17 mL/min EZChrome Elite software (Scientific Software, Pleasanton, Calif.) was used to acquire and analyze chromatographic data.
After the experiments, rats were deeply anesthetized, brains were removed and stored in 20% w/v sucrose and 4% v/v paraformaldehyde. Brains were sliced into 50 um coronal sections, stained with cresyl violet and examined for probe placement.
Microdialysis probes (2 mm active membrane) were implanted in the NAc and mPFC ˜16 hrs prior to start of the experiment and continuously perfused aCSF.

[2] = target: T1, 5HT2C (Homo sapiens, UniProt P28335); assay: Receptor binding, 5HT2C; conditions: receptor expressed in CHO cells
T1 construct: host or cells: CHO cells
T1 sequence (P28335 33-458): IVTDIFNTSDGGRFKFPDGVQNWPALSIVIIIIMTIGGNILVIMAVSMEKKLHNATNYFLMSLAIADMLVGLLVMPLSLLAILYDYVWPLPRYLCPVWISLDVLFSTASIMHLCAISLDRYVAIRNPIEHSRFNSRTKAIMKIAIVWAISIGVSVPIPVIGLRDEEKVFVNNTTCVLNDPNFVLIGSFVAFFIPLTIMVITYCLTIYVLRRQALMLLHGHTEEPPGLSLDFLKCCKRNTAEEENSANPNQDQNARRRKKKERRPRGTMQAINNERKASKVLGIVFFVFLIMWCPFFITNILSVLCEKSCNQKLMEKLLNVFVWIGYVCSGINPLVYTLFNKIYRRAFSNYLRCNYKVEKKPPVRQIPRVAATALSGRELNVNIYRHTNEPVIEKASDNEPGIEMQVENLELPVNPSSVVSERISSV
Method: (§1) All receptors tested were heterologously expressed CHO cells and IC50 values were determined by a non-linear, least squares regression analysis using MathIQ (ID Business Solution Ltd, UK). Ki was calculated using the equation of Cheng and Prusoff (1973, Biochem. Pharmacol 22:23099-3108) derived from the observed IC50 of the tested compound, the concentration of radioligand employed in the assay, and the historical values for the Kd of the ligand (obtained experimentally at MDS Pharma Services).
(§2) All receptors were heterologously expressed CHO cells and IC50 values were determined by a non-linear, least squares regression analysis using MathIQ (ID Business Solution Ltd, UK). K1 was calculated (Y. Cheng & Prusoff 1973) from the observed IC50 of the tested compound, the concentration of radioligand employed in the assay, and the historical values for the Kd of the ligand (obtained experimentally at MDS Pharma Services).

[3] = target: T2, D3 (Homo sapiens, UniProt P35462); assay: Receptor binding, dopamine D3; conditions: receptor expressed in CHO cells
T2 construct: host or cells: CHO cells
Method: as §1, §2

[4] = system: rats; assay: Catalepsy (bar test); assay type: in vivo, rat; conditions: SC; for catalepsy (immobilized contact time): across doses tested
Method: Testing occurred in a plexiglas box (28 cm×45 cm×20 cm) containing a horizontal steel bar located 8 cm above floor level. […] After injection animals were returned to the test box and catalepsy testing occurred at 1, 15, 30, and 45 minutes after injection. Testing at each time point lasted 2 min after the forepaws of each rat was placed on the bar. Behavior was recorded with a video camera (Cohu, Poway, Calif.) and scored off-line. The cumulative time spent immobilized with both forelimbs on the horizontal bar was scored for each 2 min test epoch. Videos selected at random were scored independently by a second observer and a high inter-rater reliability was observed (R^2=0.93, F=393.4, p<0.05).
Catalepsy testing was conducted as described in Example 12.

[5] = target: T3, D2L (Homo sapiens, UniProt P14416); assay: Receptor binding, dopamine D2L; conditions: for Ki: receptor expressed in CHO cells, read-out: Ki, D2L
T3 construct: host or cells: CHO cells
Method: as §1, §2

[6] = target: T4, 5HT2A (Homo sapiens, UniProt P28223); assay: Receptor binding, 5HT2A; conditions: receptor expressed in CHO cells
T4 construct: host or cells: CHO cells
Method: as §1, §2

[7] = target: D1 (Homo sapiens, UniProt P21728); assay: Receptor binding, dopamine D1; set-up: host or cells: CHO cells; conditions: for Ki: receptor expressed in CHO cells, read-out: Ki, D1
Method: as §1, §2

[8] = target: T5, Dopamine D1 receptors (Homo sapiens, UniProt P21728); assay: Dopamine D1 receptor Adenylyl Cyclase Cellular Assay (cAMP, HTRF); assay type: cell-based; conditions: for IC50: D1 antagonism, cAMP, CHO cells, read-out: IC50 of antagonistic response; for % Response Agonist: increase in cAMP relative to dopamine response; for % Response Agonist / % Response Antagonist: D1 in CHO cells; for % Response Antagonist: inhibition of dopamine-induced cAMP increase
T5 construct: host or cells: CHO cells
From the text: Methods employed in this Example were adapted from Liu et al (1992, Mol Endocrinol 92:1815-1824) and Zhou et al (1990, Nature 347:76-79) to maximize reliability and reproducibility. Reference standards were run as an integral part of each assay to ensure the validity of the results obtained. […] (+)-Butaclamol was used as a positive control for the assay assessing antagonism. Homogeneous fluorescence methodology HTRF homogeneous fluorescence quantitation methodology was used to measure the levels of cAMP. The criterion for significant agonist activity is ≧50% increase in cAMP relative to dopamine response. The criteria for significant antagonist activity ≧50% inhibition of dopamine-induced cAMP increase.

[9] = target: T6, 5HT3 (Homo sapiens, UniProt P46098); assay: Receptor binding, 5HT3; conditions: CHO cells
T6 construct: host or cells: CHO cells
T6 sequence (P46098 24-478): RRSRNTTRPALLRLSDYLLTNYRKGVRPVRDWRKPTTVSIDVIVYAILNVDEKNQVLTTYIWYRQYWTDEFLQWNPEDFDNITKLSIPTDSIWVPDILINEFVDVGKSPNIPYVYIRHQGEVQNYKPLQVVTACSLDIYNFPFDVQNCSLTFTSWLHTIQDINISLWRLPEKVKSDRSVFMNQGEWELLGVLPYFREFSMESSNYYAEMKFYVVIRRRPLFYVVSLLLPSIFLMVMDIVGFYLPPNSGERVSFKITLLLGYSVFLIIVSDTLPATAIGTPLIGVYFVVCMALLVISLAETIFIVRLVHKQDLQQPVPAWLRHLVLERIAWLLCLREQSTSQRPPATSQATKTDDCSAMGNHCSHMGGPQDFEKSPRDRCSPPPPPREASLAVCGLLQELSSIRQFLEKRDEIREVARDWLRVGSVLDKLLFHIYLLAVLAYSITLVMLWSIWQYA
Method: as §1

[10] = target: T7, 5HT6 (Homo sapiens, UniProt P50406); assay: Receptor binding, 5HT6; conditions: CHO cells
T7 construct: host or cells: CHO cells
Method: as §1

[11] = system: rats; assay: Social interaction in NVHL and sham rats; assay type: in vivo, rat; conditions: 1.0 mg/kg IP 15 minutes prior to testing
From the text: Experimental rats were neonatal ventral hippocampal lesioned (NVHL) and control (Sham) animals. […] The SI environment consisted of a 83×90×30 cm open field with each surface painted black.

[12] = target: T8, 5HT4 (Homo sapiens, UniProt Q13639); assay: Receptor binding, 5HT4
T8 construct: host or cells: CHO cells
Method: as §1

T3 sequence (P14416 whole entry): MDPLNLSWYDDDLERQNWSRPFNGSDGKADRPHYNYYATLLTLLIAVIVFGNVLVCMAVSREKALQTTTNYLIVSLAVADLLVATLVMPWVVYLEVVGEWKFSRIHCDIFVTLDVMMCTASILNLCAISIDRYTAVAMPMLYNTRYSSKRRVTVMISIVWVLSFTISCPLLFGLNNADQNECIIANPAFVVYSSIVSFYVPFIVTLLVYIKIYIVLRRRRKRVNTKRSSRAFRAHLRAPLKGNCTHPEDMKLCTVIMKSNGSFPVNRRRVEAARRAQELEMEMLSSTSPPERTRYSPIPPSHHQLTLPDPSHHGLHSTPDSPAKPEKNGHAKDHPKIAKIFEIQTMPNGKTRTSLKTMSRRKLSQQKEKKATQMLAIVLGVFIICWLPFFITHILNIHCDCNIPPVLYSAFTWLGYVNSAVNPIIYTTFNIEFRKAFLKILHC
T5 sequence (P21728 whole entry): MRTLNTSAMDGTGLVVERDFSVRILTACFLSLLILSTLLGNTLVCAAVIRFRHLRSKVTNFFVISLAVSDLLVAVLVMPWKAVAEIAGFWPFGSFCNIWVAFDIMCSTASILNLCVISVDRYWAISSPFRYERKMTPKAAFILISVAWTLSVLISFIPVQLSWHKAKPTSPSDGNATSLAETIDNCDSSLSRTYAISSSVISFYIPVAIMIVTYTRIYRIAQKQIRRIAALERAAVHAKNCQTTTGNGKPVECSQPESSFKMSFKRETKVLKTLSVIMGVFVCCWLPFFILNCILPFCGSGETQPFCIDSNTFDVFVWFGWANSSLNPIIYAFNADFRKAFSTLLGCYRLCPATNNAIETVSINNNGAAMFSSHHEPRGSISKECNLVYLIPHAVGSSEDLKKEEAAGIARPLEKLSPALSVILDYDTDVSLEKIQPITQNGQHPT
Sequence of D1 (P21728 whole entry): as above
T7 sequence (P50406 whole entry, species assumed): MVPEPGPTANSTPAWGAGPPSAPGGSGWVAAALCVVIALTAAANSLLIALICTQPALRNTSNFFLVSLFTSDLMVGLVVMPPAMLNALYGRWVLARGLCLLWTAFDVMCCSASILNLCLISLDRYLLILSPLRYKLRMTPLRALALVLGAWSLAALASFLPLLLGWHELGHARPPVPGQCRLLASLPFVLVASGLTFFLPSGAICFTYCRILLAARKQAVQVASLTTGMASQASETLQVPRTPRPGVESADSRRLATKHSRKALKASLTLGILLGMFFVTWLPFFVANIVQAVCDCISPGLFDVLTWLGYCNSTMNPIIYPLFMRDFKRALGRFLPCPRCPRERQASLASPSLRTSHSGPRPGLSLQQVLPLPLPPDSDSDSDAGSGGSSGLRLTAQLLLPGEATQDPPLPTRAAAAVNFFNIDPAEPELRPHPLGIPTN
T2 sequence (P35462 whole entry): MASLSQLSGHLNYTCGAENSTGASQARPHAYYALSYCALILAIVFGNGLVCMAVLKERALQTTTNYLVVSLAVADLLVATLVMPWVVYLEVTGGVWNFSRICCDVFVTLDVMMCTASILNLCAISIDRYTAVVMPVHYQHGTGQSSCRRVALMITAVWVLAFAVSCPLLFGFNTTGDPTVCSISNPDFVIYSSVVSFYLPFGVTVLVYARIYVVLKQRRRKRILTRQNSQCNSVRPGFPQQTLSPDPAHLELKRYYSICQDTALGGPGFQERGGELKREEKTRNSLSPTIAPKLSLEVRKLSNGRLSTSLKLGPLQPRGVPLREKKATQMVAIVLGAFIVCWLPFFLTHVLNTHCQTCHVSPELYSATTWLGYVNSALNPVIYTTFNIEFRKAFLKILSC
T8 sequence (Q13639 whole entry, species assumed): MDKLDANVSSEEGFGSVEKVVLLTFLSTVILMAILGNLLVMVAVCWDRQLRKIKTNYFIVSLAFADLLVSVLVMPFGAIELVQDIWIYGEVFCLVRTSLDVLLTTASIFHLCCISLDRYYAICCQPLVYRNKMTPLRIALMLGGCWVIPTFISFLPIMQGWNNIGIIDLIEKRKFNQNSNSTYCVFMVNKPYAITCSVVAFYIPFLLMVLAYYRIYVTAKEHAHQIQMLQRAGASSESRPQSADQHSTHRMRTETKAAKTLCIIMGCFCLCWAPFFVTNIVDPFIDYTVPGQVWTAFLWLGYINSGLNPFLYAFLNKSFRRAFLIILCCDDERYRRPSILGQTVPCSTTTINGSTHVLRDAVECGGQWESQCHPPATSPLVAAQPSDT
T4 sequence (P28223 whole entry, species assumed): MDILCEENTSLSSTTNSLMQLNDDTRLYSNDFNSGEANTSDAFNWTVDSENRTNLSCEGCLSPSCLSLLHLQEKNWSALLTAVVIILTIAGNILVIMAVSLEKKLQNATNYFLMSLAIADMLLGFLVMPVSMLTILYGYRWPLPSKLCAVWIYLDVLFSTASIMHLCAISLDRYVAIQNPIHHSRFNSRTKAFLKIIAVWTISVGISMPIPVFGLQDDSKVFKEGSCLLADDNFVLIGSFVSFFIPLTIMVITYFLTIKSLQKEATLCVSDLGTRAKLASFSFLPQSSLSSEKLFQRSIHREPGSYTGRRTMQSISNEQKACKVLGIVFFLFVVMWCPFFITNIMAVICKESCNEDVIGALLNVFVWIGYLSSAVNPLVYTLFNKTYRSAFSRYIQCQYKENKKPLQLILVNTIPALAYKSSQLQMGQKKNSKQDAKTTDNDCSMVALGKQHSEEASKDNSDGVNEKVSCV

SMILES	5-HIAA in NAc [1]	DOPAC in NAc [1]	HVA in NAc [1]	dopamine level in NAc [1]	5-HIAA in PFC [1]	DOPAC in PFC [1]	HVA in PFC [1]	dopamine level in PFC [1]	Ki [2]	Ki [3]	catalepsy (immobilized contact time) [4]	binding affinity to the D2 receptor [5]	Ki [5]	Ki [6]	binding affinity to the D1 receptor [7]	Ki [7]	IC50 [8]	% Response Agonist [8]	% Response Antagonist [8]	inhibition at 10 µM [9]	other results
COc1cc2c(cc1O)CN1CCc3cc(OC)c(O)cc3[C@H]1C2 [d-govadine]	not the NAc	no increase observed	no increase observed	not in the NAc	increased	increased	increased	selectively increased	46500 nM	606 nM	No evidence of catalepsy	weak affinity	1340 nM	11800 nM	strong binding affinity	8.75 nM	2380 nM	2%	82%	-8%	inhibition at 10 µM [10]: 9%; social interaction in NVHL rats versus Sham controls [11]: comparable levels of SI; inhibition at 10 µM ([12]; 10 μM, CHO cells): 42%
COc1cc2c(cc1O)CN1CCc3cc(OC)c(O)cc3[C@@H]1C2 [l-govadine]	No increase	increase	increase	increased	No increase	increase	increase	increased	45200 nM	548 nM	Catalepsy was observed	strong affinity	165 nM	11100 nM	strong affinity	5.77 nM	16.6 nM	2%	87%	5%	DA efflux in NAc and mPFC compared to control ([1]; 1 mg/kg, Example 15): enhanced DA efflux; time of peak cataleptic behavior post injection [4]: 15 min; inhibition at 10 µM [10]: 12%; social interaction in NVHL rats versus Sham controls [11]: comparable levels of SI; Ki ([12]; receptor expressed in CHO cells): 2470 nM
